# Measurements taken from patent US9125406B2, “Methods and compositions for control of cabbage looper, trichoplusia ni” (Simon Fraser University, priority 2008, dated 2015).
# Like-named read-outs stand apart in the source and are kept apart here.
# What was measured:
# [1] = test system: T. ni moths; test: Oviposition choice (deterrence) bioassay on cabbage leaves; type: in vivo, Trichoplusia ni; settings: for pest or weed control at 0.25 %: Trichoplusia, read-out: OD (%), mean ± SE (n = 25-33); for % deterrence / Index = deterrence/mortality: Table 11; for % deterrence: BL mark not explained; for Index = deterrence/mortality: oviposition deterrence divided by mortality; for Oviposition deterrency: Table 6 summary class, 0.25%
# Experimental: (§1) Initial screening for feeding deterrent effects was conducted at 50 μg/cm^2 in feeding deterrent bioassays.
# T. ni larvae were reared on normal diet from neonates (<24 h old) until pupation. Pupae were sexed and put in separate plastic containers until emergence. After eclosion, pairs of moths (one male and one female) were introduced into each cage with a control and a treated cabbage leaf. Pairs of moths (n=25) were used per treatment. Each leaf (approximately 100-110 cm^2) was sprayed with 0.5 mL of MeOH or a methanolic solution of the test chemical on each side. Eggs were counted on each cabbage leaf after 48 h.
# [2] = test system: third instar T. ni larvae; test: Leaf disk choice feeding deterrence bioassay; type: in vivo, Trichoplusia ni; settings: for pest or weed control at 50 µg/cm2, 50 µg/cm2 / pest or weed control at 50 µg/cm2: Trichoplusia, foliar; for pest or weed control at 50 µg/cm2: feeding deterrence (FD), Table 12, non-toxic feeding deterrents, read-out: % deterrence; for DC50: feeding deterrence DC50, unit not given in Table 12; for Feeding deterrency: Table 6 summary class
# From the text: Cabbage plants (Brassica oleraceae var. Stonehead) used in the bioassays were routinely grown in plastic pots with a mixture of sandy loam soil and peat moss (4:1) in a greenhouse at the University of British Columbia, Vancouver, BC, Canada. Leaves were collected from cabbage plants that were 5-6 weeks old.
# T. ni larvae and moths were obtained from a long established colony (>50 generations) maintained on an artificial diet, Velvetbean Caterpillar Diet No. F9796 [Bio-Sery Inc. (Frenchtown, NIL)] in the insectary of the University of British Columbia (UBC).
# as §1
# Larvae were given the choice of feeding on two leaf disks, one treated with 10 μL of a solution of the test substance painted on each side and the other treated with a carrier solvent alone. The number of larvae was 25 per treatment.
# Feeding deterrence data (percent) for initial screening concentration were analyzed by analysis of variance (ANOVA) after arcsin transformation using statistics software (Statistix 7. Analytical Software, Statistix 7 for Windows 95, 98, NT, 2000. Analytical Software, Tallahassee).
# [3] = test system: third instar T. ni larvae; test: whole plant or invertebrate; settings: for mortality at 0.25 %: Trichoplusia, topical, 24 h
# Experimental: as §1
# Mortality was determined 24 h after spraying larvae directly with test solutions. Third instar T. ni larvae were sprayed in 90 mm×15 mm Petri dishes (Falcon) lined with Fisher Scientific filter paper (90 mm diameter). Small plastic hand spraying bottles (50 mL capacity) were used. Larvae were then transferred to Petri dishes (90 mm×15 mm) with a small piece of artificial diet. Each Petri dish contained 10 larvae. Three replicates, each consisting of 10 larvae, were used per treatment.
# [4] = test system: T. ni moths; test: Oviposition choice (deterrence) bioassay on cabbage leaves; type: in vivo, Trichoplusia ni; settings: Trichoplusia, 48 h, at 0.25%, read-out: OD (%) Mean ± SE N = 35-40
# [5] = Table 4, 1,3-dialkoxybenzenes, feeding deterrence at 50 μg/cm^2, read-out: FD (%), mean (SE (n = 25))
# [6] = Table 8, 50 μg/cm^2, read-out: F.D (%) Mean ± SE N = 25
# [7] = read-out: Mortality (%) N = 3 × 10, Table 8, at 0.25%
# [8] = 48 h, Table 4, oviposition deterrence at 0.25%, 48 h
# [9] = read-out: mortality (%) (n = 3 × 10), Table 4, at 0.25%
# [10] = contact toxicity to larvae, negative or zero values replaced by 0.1 for the index (footnote b)
# [11] = Table 3, 1,4-dialkoxybenzenes, feeding deterrence at 50 μg/cm^2, read-out: FD (%), mean ± SE (n = 25)
# [12] = oviposition deterrence at 0.25%
# [13] = 48 h, Table 3, oviposition deterrence at 0.25%, 48 h
# [14] = read-out: mortality (%) (n = 3 × 10), Table 3, at 0.25%
compound,measurement,setting,value
"C=CCOc1ccccc1OCC=C [3a{6,6}, 1,2-Diallyloxy benzene]",pest or weed control at 0.25 %,"[1]; 48 h, Table 5, oviposition deterrence at 0.25%, 48 h",15%
same,"pest or weed control at 50 µg/cm2, 50 µg/cm2","[2]; Table 5, 1,2-dialkoxybenzenes, feeding deterrence at 50 μg/cm^2, read-out: FD (%), mean ± SE (n = 25)",70.4 ± 13.2%
same,mortality at 0.25 %,"[3]; read-out: mortality (%) (n = 3 × 10), Table 5, at 0.25%",20%
"COc1cccc(OC)c1 [3b{1,1}, 1,3-Dimethoxy benzene]","pest or weed control at 50 µg/cm2, 50 µg/cm2",[2]; [5],20.4 ± 19.1%
"COc1cccc(OCCC(C)C)c1 [3b{1, 5}, 1-methoxy-3-(3-methyl-butyloxy)benzene]",pest or weed control at 0.25 %,[4]; Table 8,25 to 30%
same,"pest or weed control at 50 µg/cm2, 50 µg/cm2",[2]; [6],89 ± 7%
same,mortality at 0.25 %,[3]; [7],30%
"CCOc1cccc(OCC)c1 [3b{2,2}, 1,3-Diethoxy benzene]",pest or weed control at 0.25 %,[1]; [8],3.4%
same,"pest or weed control at 50 µg/cm2, 50 µg/cm2",[2]; [5],89.4 ± 8.3%
same,pest or weed control at 50 µg/cm2,[2],89%
same,DC50,[2],29 μg/cm^2
same,mortality at 0.25 %,[3]; [9],36.7%
same,% mortality,[3]; [10],37%
"CCCOc1cccc(OCCC)c1 [3b{3,3}, 1,3-Dipropoxy benzene]",pest or weed control at 0.25 %,[1]; [8],33%
same,"pest or weed control at 50 µg/cm2, 50 µg/cm2",[2]; [5],96.9 ± 3.1%
same,pest or weed control at 50 µg/cm2,[2],97%
same,DC50,[2],27 μg/cm^2
same,LC50,"[3]; Table 4, concentration causing 50% mortality",0.16%
same,mortality at 0.25 %,[3]; [9],76.7%
same,% mortality,[3]; [10],77%
"CC(C)CCOc1cccc(OCCC(C)C)c1 [3b{5,5}, 1,3-Di-(3-methyl-butyloxy)benzene]","pest or weed control at 50 µg/cm2, 50 µg/cm2",[2]; [5],-12.2 ± 18.8%
"C=CCOc1cccc(OCCC(C)C)c1 [3b{5, 6}, 1-allyloxy-3-isopentoxybenzene]",pest or weed control at 0.25 %,[4]; Table 8,10 ± 13%
"COc1ccc(OC)cc1 [3c{1,1}, 1,4-Dimethoxy benzene]","pest or weed control at 50 µg/cm2, 50 µg/cm2",[2]; [11],9.9 ± 18%
"C=CCOc1ccc(OC)cc1 [3c{1, 6}, 1-allyloxy-4-methoxybenzene]","pest or weed control at 50 µg/cm2, 50 µg/cm2",[2]; [6],62 ± 15%
same,mortality at 0.25 %,[3]; [7],6%
"CCOc1ccc(OCC)cc1 [3c{2, 2}, 1,4-Diethoxy benzene]","OD (%), mean ± SE (n = 25-33)","[1]; Table 3, oviposition deterrence at 0.25%, 48 h",74.7 ± 13.3a %
same,% deterrence,[1]; [12],75%
same,Index = deterrence/mortality,[1],0.75
same,pest or weed control at 0.25 %,[1]; [13],74.7%
same,"pest or weed control at 50 µg/cm2, 50 µg/cm2",[2]; [11],80.8 ± 11.3%
same,pest or weed control at 50 µg/cm2,[2],81%
same,DC50,[2],26 μg/cm^2
same,LC50,"[3]; Table 3, concentration causing 50% mortality compared with the control",0.03%
same,% mortality,"[3]; Table 11, at 0.25%",100%
same,mortality at 0.25 %,[3]; [14],100%
same,% mortality,[3]; [10],100%
"CCCOc1ccc(OCCC)cc1 [3c{3,3}, 1,4-Dipropoxy benzene]",pest or weed control at 0.25 %,[1]; [13],11.8 ± 13.1%
same,"pest or weed control at 50 µg/cm2, 50 µg/cm2",[2]; [11],96 ± 2.8%
same,pest or weed control at 50 µg/cm2,[2],96%
same,DC50,[2],20 μg/cm^2
same,mortality at 0.25 %,[3]; [14],22.6%
same,% mortality,[3]; [10],23%
"CC(C)CCOc1ccc(OCCC(C)C)cc1 [3c{5,5}, 1,4-Di-(3-methyl-butyloxy)benzene]","pest or weed control at 50 µg/cm2, 50 µg/cm2",[2]; [11],44 ± 18.3%
"C=CCOc1ccc(OCCCC)cc1 [3c{6,4}, 1-allyloxy-4-butoxy benzene]",pest or weed control at 0.25 %,[1]; [13],16.8 ± 13.8%
same,"pest or weed control at 50 µg/cm2, 50 µg/cm2",[2]; [11],84 ± 10.7%
same,mortality at 0.25 %,[3]; [14],10%
"C=CCOc1ccc(OCC=C)cc1 [3c{6,6}, 1,4-Diallyloxy benzene]",pest or weed control at 0.25 %,[1]; [13],14.1 ± 13.1%
same,"pest or weed control at 50 µg/cm2, 50 µg/cm2",[2]; [11],96.9 ± 3.6%
same,pest or weed control at 50 µg/cm2,[2],97%
same,DC50,[2],24 μg/cm^2
same,mortality at 0.25 %,[3]; [14],16%
same,% mortality,[3]; [10],16%
"C=CCc1c(OC)cccc1OCCC [5b{3, 1} y (100% y), 1-methoxy-2-allyl-3-propoxy-benzene]",pest or weed control at 0.25 %,"[4]; Table 7, second lots and purified isomers",17 ± 14%
same,"pest or weed control at 50 µg/cm2, 50 µg/cm2","[2]; Table 7, second lots and purified isomers, 50 μg/cm^2, read-out: F.D (%) Mean ± SE N = 25",100%
CCOc1ccc(OCC)cc1 [drawing 17],Oviposition deterrency,[1],"strong (Strong oviposition deterrency, >50%)"
same,Feeding deterrency,[2]; 50 μg/cm^2,"strong (Strong feeding deterrency, >80%)"
CCCOc1cccc(OCCC)c1 [drawing 18],Oviposition deterrency,[1],"moderate (moderate, >25%)"
same,Feeding deterrency,[2]; 50 μg/cm^2,"strong (Strong feeding deterrency, >80%)"
CCCOc1ccc(OCCC)cc1 [drawing 22],Oviposition deterrency,[1],"weak (weak, >10%)"
same,Feeding deterrency,[2]; 50 μg/cm^2,"strong (Strong feeding deterrency, >80%)"
C=CCOc1ccc(OCC=C)cc1 [drawing 23],Oviposition deterrency,[1],"weak (weak, >10%)"
same,Feeding deterrency,[2]; 50 μg/cm^2,"strong (Strong feeding deterrency, >80%)"
C=CCOc1ccc(OCCCC)cc1 [drawing 24],Oviposition deterrency,[1],"weak (weak, >10%)"
same,Feeding deterrency,[2]; 50 μg/cm^2,"strong (Strong feeding deterrency, >80%)"
butyl eugenol,% deterrence,[1]; [12],34 BL %
same,Index = deterrence/mortality,[1],2.2
same,% mortality,[3]; in vivo,15%
